In patent US20240173363A1, “MICROBIOME COMPOSITION OF HALOPHILIC BACILLUS VELEZENSIS KMU01 STRAIN FERMENTED CULTURE SUPERNATANT WITH ANTI-OBESITY EFFECT” (KOOKMINBIO, CORP., priority 2022, published 2024):

System: C57BL/6J mice
Assay: Biochemical analysis of blood (plasma)
Type: in vivo
Settings: HFD mice
Description: When brought in, the animal was inspected and weighed. […] Xenical was used as a positive control. […] Blood glucose, AST, ALT, and BUN were measured using a chemical analyzer (Fuji DRI-CHEM 3500i, Fuji Photo Film, Ltd., Tokyo, Japan), total cholesterol and high density lipoprotein (HDL)-cholesterol (hereinafter referred to as HDL-C) were measured using a LabAssay™ Cholesterol kit (Wako, Osaka, Japan), and a low-density lipoprotein (LDL)-cholesterol (hereinafter referred to as LDL-C) was calculated using the following Equation 2. In addition, TG was analyzed using TG assay kits (Abcam, Cambridge, MA), respectively. LDL-C=Total cholesterol−{(HDL-C)+(TG/5)} [EQUATION 2]

CCCCCCCCCCC[C@@H](C[C@@H]1OC(=O)[C@H]1CCCCCC)OC(=O)[C@H](CC(C)C)NC=O [Xen]
blood TG compared to the high-fat diet group (Xenical 50 mg/kg/day, 13 weeks, p<0.05): significantly reduced | LDL-C (plasma, 13 weeks oral, calculated by Equation 2, mean ± SD): 31.55 ± 17.44 mg/dL
